Measurements from ChEMBL document CHEMBL1201862, “PubChem BioAssay data set” (2004).
Activity calls are given as the source filed them. Cut-off read from the data, not from the text of the source, for most assays here: actives have a measured EC50 and inactives only a lower limit.

How the values were obtained:
[1] = target: DNA dC->dU-editing enzyme APOBEC-3G (Homo sapiens, UniProt Q9HC16); experiment: Dose Response confirmation of small molecule APOBEC3G DNA Deaminase Inhibitors via a fluorescence-based single-stranded DNA deaminase assay. [Related pubchem assays (depositor defined):AID493012, AID493028]; type: functional
Chain of DNA dC->dU-editing enzyme APOBEC-3G (Q9HC16 whole entry): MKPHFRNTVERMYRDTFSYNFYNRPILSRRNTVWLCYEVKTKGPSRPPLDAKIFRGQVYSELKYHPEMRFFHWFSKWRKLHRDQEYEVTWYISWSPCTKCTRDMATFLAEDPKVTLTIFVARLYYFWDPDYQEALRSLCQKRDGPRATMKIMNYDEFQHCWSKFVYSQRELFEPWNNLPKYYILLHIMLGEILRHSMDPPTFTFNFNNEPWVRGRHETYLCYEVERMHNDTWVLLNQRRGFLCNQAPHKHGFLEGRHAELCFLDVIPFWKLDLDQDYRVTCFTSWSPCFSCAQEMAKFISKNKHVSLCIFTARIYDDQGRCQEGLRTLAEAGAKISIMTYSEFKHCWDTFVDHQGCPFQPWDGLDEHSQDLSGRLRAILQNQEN

[2] = NIH-3T3 fibroblast cytotoxicity, dose response, cytotoxicity control, cell-based, fluorescence, Alamar Blue, secondary assay (AID 2327); type: functional;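 note: NIH-3T3 mouse fibroblasts cultured with fluconazole at 8 µg/mL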
[3] = fluconazole-exposed Candida albicans growth modulators – fluorescence, retest, confirmation (AID 2467); type: functional, cell-based
H9c2 = experiment: cells; type: functional, cell-based; details: Rattus norvegicus, H9c2, Myocardium;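 note: confirmatory concentration-response retest of ultra-high-throughput screening hits for modulation of myocardial damage; cell death induced by hydrogen peroxide oxidative stress; compound pretreatment for 60 min then peroxide exposure for 2 h; potency is for protecting the cells against peroxide damage rather than for killing them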
[4] = Trypanosoma cruzi growth suppression in host cells – NIH3T3 host cells, beta-gal luminescence, confirmation (AID 2044); type: functional, cell-based;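 note: intracellular parasites grown in NIH/3T3 mouse fibroblasts as host cells; luminescent beta-galactosidase reporter signal from transgenic T. cruzi replicating inside host cells; inhibitors lower the luminescence signal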
[5] = NIH3T3 cell viability loss – ATP luminescence, mouse fibroblasts, counter-screen, dose response (AID 2010); type: functional, cell-based;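 note: cells exposed to compound for about 90 hours before reading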
Nonstructural protein 1 = Nonstructural protein 1 (Influenza A virus, UniProt Q194T2); type: functional, Influenza A virus (A/California/07/2009(H1N1))
Chain of Nonstructural protein 1 (Q194T2 whole entry): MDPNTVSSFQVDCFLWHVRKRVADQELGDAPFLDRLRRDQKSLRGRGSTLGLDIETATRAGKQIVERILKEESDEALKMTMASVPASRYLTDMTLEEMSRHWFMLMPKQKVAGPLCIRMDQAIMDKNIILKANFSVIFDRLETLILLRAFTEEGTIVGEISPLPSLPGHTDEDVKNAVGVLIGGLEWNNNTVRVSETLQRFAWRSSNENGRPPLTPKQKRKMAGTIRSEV

[6] = target: Heat shock protein HSP 90-alpha (Homo sapiens, UniProt P07900); type: functional, organism-based
cells [7] = type: functional, cell-based
cells [8] = type: functional, cell-based; remark: listed apart in the source
[9] = system: Streptococcus sp. 'group A'; experiment: Streptococcus pyogenes SK(-)GAS viability under kanamycin – luminescence, BacTiterGlo, confirmation, counter-screen for streptokinase expression inhibitor project, dose response (AID 1900); type: functional, organism-based
Streptokinase A = target: T1, Streptokinase A (Streptococcus pyogenes serotype M1, UniProt P10520); experiment: viability-normalized secreted streptokinase activity reduction – plasminogen activation absorbance, OD405, dose response (AID 1914); type: functional, Streptococcus pyogenes M1 GAS;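 note: secreted streptokinase activity via plasminogen activation per viability signal from cell pellet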
T1 sequence (P10520 whole entry): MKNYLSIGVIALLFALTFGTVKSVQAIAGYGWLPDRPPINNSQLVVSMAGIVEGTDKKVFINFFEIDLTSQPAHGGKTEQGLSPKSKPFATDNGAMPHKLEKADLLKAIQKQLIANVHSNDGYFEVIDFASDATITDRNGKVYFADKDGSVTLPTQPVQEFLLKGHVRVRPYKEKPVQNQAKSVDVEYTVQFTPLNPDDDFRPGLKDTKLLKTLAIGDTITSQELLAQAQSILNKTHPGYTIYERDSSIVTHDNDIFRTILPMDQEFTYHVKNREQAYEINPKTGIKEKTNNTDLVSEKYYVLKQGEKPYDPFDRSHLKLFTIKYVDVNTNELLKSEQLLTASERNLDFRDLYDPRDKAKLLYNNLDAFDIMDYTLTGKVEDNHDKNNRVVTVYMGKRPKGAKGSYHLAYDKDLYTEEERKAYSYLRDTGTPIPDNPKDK

Streptococcus = experiment: GAS UMAA2166 growth inhibition – luminescence, BacTiterGlo, counter-screen for streptokinase expression inhibitor project, dose response (AID 1915); type: functional, organism-based;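 note: potency for reduction of bacterial viability or growth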
[10] = target: T2, Ubiquitin-conjugating enzyme E2 N (Homo sapiens, UniProt P61088); type: functional;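 note: Dose-response confirmation in a TR-FRET assay detecting UBC13-driven polyubiquitin chain formation, inhibition measured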
T2 sequence (P61088 whole entry): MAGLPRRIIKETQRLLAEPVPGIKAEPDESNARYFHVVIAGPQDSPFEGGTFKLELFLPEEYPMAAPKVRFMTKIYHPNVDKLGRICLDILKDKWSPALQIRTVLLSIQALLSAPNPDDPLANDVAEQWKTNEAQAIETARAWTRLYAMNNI

[11] = target: T3, RNA-binding protein pos-1 (Caenorhabditis elegans, UniProt G5EF15); experiment: disruptors of C. elegans POS-1 RNA interaction – biochemical, fluorescence polarization, dose response (AID 1964);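 note: purified POS-1 fused to maltose binding protein made in E. coli; potency of compounds blocking POS-1 binding to fluorescent RNA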
T3 sequence (G5EF15 whole entry): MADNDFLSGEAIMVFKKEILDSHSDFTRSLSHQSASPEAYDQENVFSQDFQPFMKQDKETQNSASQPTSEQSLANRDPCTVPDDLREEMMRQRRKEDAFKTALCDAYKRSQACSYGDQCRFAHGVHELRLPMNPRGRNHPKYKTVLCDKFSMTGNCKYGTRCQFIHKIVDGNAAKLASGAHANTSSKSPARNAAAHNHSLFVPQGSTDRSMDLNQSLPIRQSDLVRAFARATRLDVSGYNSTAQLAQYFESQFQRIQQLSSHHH

[12] = target: T4, Zinc finger protein mex-5 (Caenorhabditis elegans, UniProt Q9XUB2); experiment: potency of MEX-5 RNA-binding blockers – biochemical, C. elegans, fluorescence polarization, dose response (AID 1960)
T4 sequence (Q9XUB2 whole entry): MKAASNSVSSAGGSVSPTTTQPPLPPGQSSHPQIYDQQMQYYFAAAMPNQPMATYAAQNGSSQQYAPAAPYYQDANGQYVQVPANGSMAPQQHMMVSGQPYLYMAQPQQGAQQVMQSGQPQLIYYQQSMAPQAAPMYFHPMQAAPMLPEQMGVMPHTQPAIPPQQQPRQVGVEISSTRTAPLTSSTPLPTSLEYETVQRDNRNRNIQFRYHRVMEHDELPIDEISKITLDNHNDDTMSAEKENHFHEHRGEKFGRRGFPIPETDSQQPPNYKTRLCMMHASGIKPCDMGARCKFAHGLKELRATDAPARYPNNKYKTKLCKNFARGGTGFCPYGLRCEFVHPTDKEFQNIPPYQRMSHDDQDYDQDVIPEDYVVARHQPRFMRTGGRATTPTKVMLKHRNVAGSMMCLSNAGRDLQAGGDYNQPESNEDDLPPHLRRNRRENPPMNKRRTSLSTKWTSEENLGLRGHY

Genome polyprotein = Genome polyprotein (dengue virus type 2, UniProt P29990); experiment: flavivirus cap methylation enzyme inhibition – biochemical, confirmation dose response, primary screen (AID 588689); type: functional
Chain of Genome polyprotein (P29990 2492-3391 limits assumed): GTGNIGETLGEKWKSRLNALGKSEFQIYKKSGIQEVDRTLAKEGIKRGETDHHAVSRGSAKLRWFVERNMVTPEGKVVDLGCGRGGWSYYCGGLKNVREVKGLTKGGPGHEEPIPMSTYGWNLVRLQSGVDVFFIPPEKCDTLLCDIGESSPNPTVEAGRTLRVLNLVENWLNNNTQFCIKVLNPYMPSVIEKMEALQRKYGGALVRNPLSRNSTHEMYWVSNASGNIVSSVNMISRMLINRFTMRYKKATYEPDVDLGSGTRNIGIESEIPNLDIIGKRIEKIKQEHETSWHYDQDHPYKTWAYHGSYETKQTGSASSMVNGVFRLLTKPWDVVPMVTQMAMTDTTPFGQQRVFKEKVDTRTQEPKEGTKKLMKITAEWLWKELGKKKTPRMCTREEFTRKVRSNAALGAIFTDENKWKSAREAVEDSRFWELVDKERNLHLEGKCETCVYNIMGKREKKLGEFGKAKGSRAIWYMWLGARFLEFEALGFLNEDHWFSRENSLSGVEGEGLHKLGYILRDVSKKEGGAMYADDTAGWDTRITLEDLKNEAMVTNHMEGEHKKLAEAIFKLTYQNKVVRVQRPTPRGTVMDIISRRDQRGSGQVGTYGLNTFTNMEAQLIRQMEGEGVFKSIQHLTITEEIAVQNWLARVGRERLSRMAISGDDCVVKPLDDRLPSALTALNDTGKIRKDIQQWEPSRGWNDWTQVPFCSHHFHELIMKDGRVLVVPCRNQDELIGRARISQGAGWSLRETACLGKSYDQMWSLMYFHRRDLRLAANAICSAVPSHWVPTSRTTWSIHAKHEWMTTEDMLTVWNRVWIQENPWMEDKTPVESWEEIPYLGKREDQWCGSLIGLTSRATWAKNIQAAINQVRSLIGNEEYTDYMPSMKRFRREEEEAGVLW

INS1 = experiment: INS-1E survival protection against cytokine death – cell-based, luminescence, retest, dose response (AID 449756); type: functional; details: Rattus norvegicus;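 note: cell death triggered by IL-1 beta plus TNF-alpha plus IFN-gamma mixture; protective hits raise ATP signal compared with cytokine alone wells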
[13] = blockers of HIV-1 ZM109 envelope-driven cell-cell fusion – HeLa effector, CEM target cells, luciferase, cherry-pick, dose response (AID 652058); type: functional, cell-based;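 note: luciferase signal from HIV-1 Env mediated cell-cell fusion of effector and target cells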
[14] = target: T5, Heat shock factor protein 1 (Mus musculus, UniProt P38532); experiment: decrease of HSF1-responsive luciferase luminescence – cell-based, NIH3T3, dose retest, confirmation (AID 2382); type: functional;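 note: NIH3T3 fibroblasts with HSF1-driven luciferase reporter stressed by proteasome inhibitor MG132; luminescence from HSF1-driven luciferase expression after 8 hours of MG132 stress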
T5 sequence (P38532 whole entry): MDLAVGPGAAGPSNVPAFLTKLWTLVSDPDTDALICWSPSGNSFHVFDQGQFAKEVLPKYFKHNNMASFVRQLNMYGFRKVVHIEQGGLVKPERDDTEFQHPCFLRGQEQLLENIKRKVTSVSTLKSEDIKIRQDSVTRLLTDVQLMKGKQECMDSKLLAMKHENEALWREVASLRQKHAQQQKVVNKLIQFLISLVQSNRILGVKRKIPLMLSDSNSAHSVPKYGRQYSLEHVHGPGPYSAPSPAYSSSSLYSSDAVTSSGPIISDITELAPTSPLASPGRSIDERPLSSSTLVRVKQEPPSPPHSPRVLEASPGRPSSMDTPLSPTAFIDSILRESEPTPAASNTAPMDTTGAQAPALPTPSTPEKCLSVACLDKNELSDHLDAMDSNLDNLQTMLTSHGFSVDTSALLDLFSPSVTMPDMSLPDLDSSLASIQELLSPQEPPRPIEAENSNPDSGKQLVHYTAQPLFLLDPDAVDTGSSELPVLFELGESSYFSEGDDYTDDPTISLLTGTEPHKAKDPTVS

[15] = P. falciparum Dd2 growth inhibitors, dose response, SYBR Green, cherry-picked samples (AID 1159567); type: functional, cell-based

COc1ccc(CC(=S)N2CCOCC2)cc1
IC50 [1]: 46.1 µM (active)

Cc1ccc(Sc2ncccc2C(=O)NCc2cc([N+](=O)[O-])ccc2O)c(C)c1
EC50 [2]: > 150 µM (inactive) | EC50 [3]: 1.73 µM (active)

O=C(CCc1nc(O)c2ccccc2n1)Nc1ccc(N2CCCCC2)cc1
IC50 (H9c2): > 79 µM (inactive)

OCc1ccnc2c(O)cccc12
EC50 [2]: 79.8 µM (active) | EC50 [3]: > 38 µM (not active) | EC50 [4]: 3.36 µM (active) | EC50 [5]: > 30 µM (not active) | IC50 (Nonstructural protein 1): 10.2 µM (active)

COc1ccc2c(c1)OC[C@H]1[C@H]2N2C(=O)c3cc(Br)ccc3NC(=O)[C@@]2(C)[C@H]1c1ccccc1
AC50 [6]: 0.837 µM (active)

CN(C(=O)Cn1nc(C(=O)O)c2ccccc2c1=O)C1(C#N)CCCCC1
IC50 (H9c2): > 79 µM (inactive)

Cc1noc(NC(=O)c2ccc(Cl)c(Cl)c2)c1Cl
EC50 [2]: > 150 µM (inactive) | EC50 [3]: 0.591 µM (active)

CCCCN=C(S)Nc1ccc2c[nH]nc2c1
EC50 (cells [7]): > 350 µM (not active) | EC50 (cells [8]): > 350 µM (not active)

CC(=O)c1ccc(NC(=O)Nc2cccc3ccccc23)cc1
EC50 [2]: 19.1 µM (inconclusive) | EC50 [3]: > 38 µM (not active)

COC(=O)c1ccccc1NC(=O)c1nc2nc(C)cc(C)n2n1
IC50 (H9c2): > 79 µM (inactive)

O=C(NNC(=S)NC(=O)c1ccccc1)c1ccc([N+](=O)[O-])cc1
EC50 [2]: > 160 µM (inactive) | EC50 [9]: 4.22 µM (active) | EC50 (Streptokinase A): > 150 µM (not active) | EC50 [3]: 1.46 µM (active) | EC50 (Streptococcus): 15.5 µM (active)

NC(=O)c1nsc(C(=O)N(c2cccc(F)c2)C(C(=O)NCC2CCCO2)c2c[nH]c3ccccc23)c1N (configuration not stated)
IC50 [10]: > 20 µM (inactive)

O=C(COC(=O)c1ccc([N+](=O)[O-])o1)Nc1cccc(S(=O)(=O)N2CCCCC2)c1
IC50 (H9c2): > 79 µM (inactive)

O=S1(=O)CC(O)C(N=Nc2c(O)n(Cc3ccccc3)c3ccccc23)C1 (configuration not stated)
IC50 [10]: > 20 µM (inactive)

CC1(OC(=O)c2ccco2)C(=O)C=C2C=C(C3CC3)OC=C2C1=O (configuration not stated)
EC50 [11]: 20.2 µM (active) | EC50 [12]: 18.3 µM (active) | IC50 (Genome polyprotein): > 100 µM (active)

Cc1cc(NC(=O)CSc2nc3c(c(=O)n2-c2ccc(Cl)cc2)SCC3)no1
EC50 (cells [7]): > 350 µM (not active) | EC50 (cells [8]): > 350 µM (not active)

COc1cc(-c2nnc(COC(=O)c3cc(C)nc4ccc(C)cc34)o2)cc(OC)c1OC
IC50 (H9c2): 12.3 µM (active)

CCCCC(=O)Nc1ccc(NC(=O)CC)cc1OC
EC50 (cells [7]): > 350 µM (not active) | EC50 (cells [8]): > 350 µM (not active)

Cc1ccc(N2CCN(C3=NC(=O)/C(=C\c4c[nH]nc4-c4ccccc4)S3)CC2)cc1
EC50 [2]: > 150 µM (inactive) | EC50 [3]: 8.34 µM (active)

CC(=NNC(=S)N1CC2CCC(CC2)C1)c1cnccn1
IC50 (Nonstructural protein 1): 3.16 µM (active) | AC50 [6]: 4.43 µM (active)

CCC[C@@H](CN1CCC[C@H]1CN1C(N)=NC[C@@H]1Cc1ccccc1)N1C[C@@H]([C@H](C)CC)N(CCc2ccc(Cl)c(Cl)c2)C1=N
IC50 [10]: > 20 µM (inactive)

C#CCOCCOCCOCCNc1nc(N2CCN(C(=O)[C@H](CO)n3cc([C@@H](N)C(C)C)nn3)CC2)nc(N2CCN(C(=O)[C@H](CCC(=O)O)n3cc([C@@H](N)CCCCN)nn3)CC2)n1
IC50 [10]: > 20 µM (inactive)

CC(=O)N1CCN(C(=O)CCc2nc(O)c3ccccc3n2)CC1
IC50 (H9c2): > 79 µM (inactive)

O=C(O)c1cccc2c1Cc1cc(Cl)ccc1-2
AC50 [6]: 0.723 µM (active)

C/C(=N\NC(=O)c1cc(-c2cccnc2)nc2ccccc12)c1ccccc1O
EC50 (cells [7]): 16.8 µM (active) | EC50 [4]: 0.834 µM (active) | EC50 (cells [8]): > 350 µM (not active) | EC50 [5]: 2.18 µM (active) | AC50 (INS1): 0.971 µM (active)

O=C(C[C@@H]1C=C[C@@H](NC(=O)c2ccccc2)[C@H](CO)O1)NCc1ccc(Oc2ccccc2)cc1
AC50 [13]: 38.2 µM (active)

CC(C)Cn1c(/C=N/Nc2nc3ccccc3[nH]2)nc2ccccc21
EC50 (cells [7]): 52.5 µM (active) | EC50 (cells [8]): > 350 µM (not active)

COc1ccc(/C=N/n2c(S)nnc2-c2cc(C)[nH]n2)cc1OC
EC50 [14]: > 195 µM (not active) | IC50 [1]: 8.3 µM (active)

O=C(N/N=C/c1cccnc1)c1ccc(NC(=O)c2ccc(Cl)cc2)cc1
EC50 (cells [7]): > 350 µM (not active) | EC50 (cells [8]): > 350 µM (not active)

CCCN1C[C@@H](C)[C@H](OC)CN(C)C(=O)c2ccc(NC(=O)c3cccc(F)c3)cc2OC[C@H]1C
AC50 [15]: 5.34 µM (active)

O=C(C1CCCC1)N1CC[C@@H]2[C@H]1c1cc(C3=CCCCC3)ccc1N[C@@H]2CO
AC50 [15]: 2.76 µM (active)

CN(C)Cc1ccc(-c2nc3cccc4c3n2CCNC4=O)cc1
IC50 (H9c2): > 79 µM (inactive)
